Ki data for 3 compounds are collected here from patent US20120065205A1, “PYRAZINE CARBOXAMIDE OREXIN RECEPTOR ANTAGONISTS” (priority 2009, published 2012).

For the test, the target named is T1, OX2R (Homo sapiens, UniProt O43614).
T1 construct: expressed in transfected cells; host or cells: CHO cells (membranes)
T1 sequence (O43614 1-444): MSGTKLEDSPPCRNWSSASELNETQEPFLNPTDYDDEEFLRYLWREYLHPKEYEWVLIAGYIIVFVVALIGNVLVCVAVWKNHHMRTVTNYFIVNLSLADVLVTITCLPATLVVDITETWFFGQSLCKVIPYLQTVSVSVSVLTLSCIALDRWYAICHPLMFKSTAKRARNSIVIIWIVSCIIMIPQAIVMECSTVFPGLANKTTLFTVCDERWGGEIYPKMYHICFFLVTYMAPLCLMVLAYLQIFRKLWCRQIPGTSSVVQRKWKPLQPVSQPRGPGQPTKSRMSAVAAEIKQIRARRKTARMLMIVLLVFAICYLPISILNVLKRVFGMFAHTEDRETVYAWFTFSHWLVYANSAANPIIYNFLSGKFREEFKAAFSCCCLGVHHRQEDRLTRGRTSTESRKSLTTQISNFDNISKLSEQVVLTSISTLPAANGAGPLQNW
The experiment in a line: radioligand binding assay, membranes from CHO cells expressing OX2 receptor. The settings on record: CHO cell membranes. How it is done:
The utility of the compounds in accordance with the present invention as orexin receptor OX1R and/or OX2R antagonists may be readily determined without undue experimentation by methodology well known in the art, including the “FLIPR Ca^2+ Flux Assay” (Okumura et al., Biochem. Biophys. Res. Comm. 280:976-981, 2001). In a typical experiment the OX1 and OX2 receptor antagonistic activity of the compounds of the present invention was determined in accordance with the following experimental method. For intracellular calcium measurements, Chinese hamster ovary (CHO) cells expressing the rat orexin-1 receptor or the human orexin-2 receptor, are grown in Iscove's modified DMEM containing 2 mM L-glutamine, […], 1% hypoxanthine-thymidine supplement, 100 U/ml penicillin, 100 ug/ml streptomycin and 10% heat-inactivated fetal calf serum (FCS). The cells are seeded at 20,000 cells/well into Becton-Dickinson black 384-well clear bottom sterile plates coated with poly-D-lysine. All reagents were from GIBCO-Invitrogen Corp. The seeded plates are incubated overnight at 37° C. and 5% CO2. […] Within the Fluorescent Imaging Plate Reader (FLIPR, Molecular Devices), test compounds are added to the plate in a volume of 25 ul, incubated for 5 min and finally 25 ul of agonist is added. Fluorescence is measured for each well at 1 second intervals for 5 minutes and the height of each fluorescence peak is compared to the height of the fluorescence peak induced by 70 pM Ala-6,12 orexin-A with buffer in place of antagonist. […] Alternatively, compound potency can be assessed by a radioligand binding assay (described in Bergman et. al. Bioorg. Med. Chem. Lett. 2008, 18, 1425-1430) in which the inhibition constant (Ki) is determined in membranes prepared from CHO cells expressing either the OX1 or OX2 receptor. The intrinsic orexin receptor antagonist activity of a compound which may be used in the present invention may be determined by these assays.

As to `COc1ccc(CNC(=O)c2nc(-c3cncc(Cl)c3)cnc2-c2ccccc2F)nc1OC` [1-9, 6-(5-chloropyridin-3-yl)-N-[(5,6-dimethoxypyridin-2-yl)methyl]-3-(2-fluorophenyl)pyrazine-2-carboxamide], the affinity corresponds to a Ki of 3.9 nM.

Consider `COc1ccc(CNC(=O)c2nc(-c3cc(C)cc(C)c3)cnc2N2CCOCC2)nc1OC` [2-5, N-[(5,6-dimethoxypyridin-2-yl)methyl]-6-(3,5-dimethylphenyl)-3-(morpholin-4-yl)pyrazine-2-carboxamide], for which the Ki (commonly the equilibrium dissociation constant of an inhibitor or competing ligand from its target) stood at 33 nM.

Turning to `COc1ccc(CNC(=O)c2nc(-c3cncc(C)c3)cnc2-c2ccccc2)nc1OC` [1-5, N-[(5,6-dimethoxypyridin-2-yl)methyl]-6-(5-methylpyridin-3-yl)-3-phenylpyrazine-2-carboxamide], the inhibition constant Ki amounted to 1.4 nM.
